# Source: patent publication US20210346527A1, “Combination Therapy” (Advanced Accelerator Applications (Italy) SRL, priority 2018, published 2021)
# Tested on: CA20948 Tumor Model (neuroendocrine tumor cells)
# Test: In vivo therapy of PRRT +/- Olaparib, CA20948 tumor model
# Set-up: species or system BALB-c immunocompromised mice
# Source text: FIG. 1 : In vivo therapy of PRRT +/− Olaparib. The FIG. 1A presents the tumor volume after injection in the presence of the vehicle (square), olaparib alone (full circle), PRRT alone (empty circle) or in combination with PARP inhibitor (triangle). The survival proportions are also shown in FIG. 1B after injection in the presence of the vehicle, olaparib alone, PRRT alone or in combination with PARP inhibitor.
# Combination therapies using CA20948 Tumor Model
# We have xenografted BALB-c immunocompromised mice with neuroendocrine tumor cells. To increase the window of opportunity, we have started PARP inhibitor administration two days prior to PRRT injection for in total 14 days.
molecule,measurement,setting,value
Lutetium (177Lu) oxodotreotide [PRRT],speed of tumor regrowth,PRRT versus PRRT+olaparib groups,the same in both groups
same,start of tumor shrinkage,"after injection, xenografted mice, PARP inhibitor started two days prior to PRRT injection, in total 14 days",3 days
"O=C(c1cc(Cc2n[nH]c(=O)c3ccccc23)ccc1F)N1CCN(C(=O)C2CC2)CC1 [olaparib, Olaparib]",effect on survival,compared to vehicle,No effect
same,effect on tumor growth,compared to vehicle,No effect
